From ChEMBL document CHEMBL1201862, “PubChem BioAssay data set” (2004)
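Compound exposure: 48 hours, 5 concentrations, 96-well plates. GI50 = concentration required for 50% inhibition of growth.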 The source made the active and inactive calls. No stated cut-off is given here; in the data, active = GI50 up to about 1.1 µM and inactive = higher.

Legend:
Assay in all cases: NCI-60 cell line screen, 48 h
[1] = system: ACHN
[2] = system: HOP-92
[3] = system: OVCAR-4
[4] = system: SNB-75
[5] = system: MDA-N
[6] = system: K562
[7] = system: HL-60
[8] = system: NCI/ADR-RES
[9] = system: IGROV-1
[10] = system: NCI-H23
[11] = system: EKVX
[12] = system: NCI-H460
[13] = system: LOX IMVI
[14] = system: SF-295
[15] = system: COLO 205
[16] = system: Hs-578T
[17] = system: PC-3
[18] = system: HT-29
[19] = system: SK-MEL-2
[20] = system: HOP-62

Measured: GI50

Cc1cc(N2CCCC2)c([N+](=O)[O-])cc1[N+](=O)[O-]
inactive: [1] > 100 µM | [2] > 100 µM | [3] > 100 µM | [4] > 100 µM | [5] > 100 µM | [6] > 100 µM | [7] > 100 µM | [8] > 100 µM | [9] > 100 µM | [10] > 100 µM | [11] > 100 µM | [12] > 100 µM | [13] > 100 µM | [14] > 100 µM | [15] > 100 µM | [16] 90.4 µM | [17] > 100 µM | [18] > 100 µM | [19] > 100 µM

C=CCCCCOC1C=CC(O)C(CO)O1 (stereo unspecified)
inactive: [1] > 100 µM | [2] > 100 µM | [3] > 100 µM | [5] > 100 µM | [20] > 100 µM | [6] > 100 µM | [7] > 100 µM | [8] > 100 µM | [9] > 100 µM | [10] > 100 µM | [11] > 100 µM | [12] > 100 µM | [13] > 100 µM | [14] > 100 µM | [15] > 100 µM | [16] 30.1 µM | [17] > 100 µM | [18] > 100 µM | [19] > 100 µM

O=C(C1OC1c1ccc(Br)cc1O)C12CC3CC(CC(C3)C1)C2 (stereo unspecified)
inactive: [1] 33.9 µM | [2] 17.7 µM | [3] 26.2 µM | [4] 14.5 µM | [5] 17 µM | [20] 26.2 µM | [6] 15.4 µM | [7] 16.9 µM | [8] 30 µM | [9] 32 µM | [10] 19.2 µM | [11] > 100 µM | [12] 27.6 µM | [13] 14.6 µM | [14] 17.9 µM | [16] 15.7 µM | [17] 23.6 µM | [18] 28.8 µM

CC(C)C1CSC2N1C(=O)C2(OCc1ccccc1)C1CC1 (stereo unspecified)
inactive: [1] > 100 µM | [2] > 100 µM | [3] > 100 µM | [4] 97.7 µM | [5] > 100 µM | [20] > 100 µM | [6] 67.8 µM | [7] 73.6 µM | [8] 63.4 µM | [9] > 100 µM | [10] > 100 µM | [11] > 100 µM | [12] > 100 µM | [13] > 100 µM | [14] > 100 µM | [15] > 100 µM | [16] > 100 µM | [17] 69 µM | [18] > 100 µM

CC(C)(O)C1OCC(C2CCC3(C)C4=CCC5C(C)(C)C(O)CCC5(C)C4CCC23C)CC1O (stereo unspecified)
inactive: [1] 15.3 µM | [2] 12.6 µM | [3] 11.8 µM | [4] 16.9 µM | [5] 16.6 µM | [6] 4.44 µM | [7] > 100 µM | [8] 12.6 µM | [9] 17.3 µM | [10] 23.2 µM | [11] 17.2 µM | [12] 13.4 µM | [13] 17.9 µM | [14] 13.9 µM | [15] 15 µM | [16] 13.8 µM | [17] 10.5 µM | [18] 13.1 µM | [19] 22.8 µM

CC#C[C@]1(O)CCC2[C@@H]3CCC4=CC(=O)CCC4=C3[C@@H](c3ccc(N(C)C)cc3)C[C@@]21C (stereo partly specified)
inactive: [1] 18.7 µM | [2] 1.43 µM | [3] 6.37 µM | [5] 11.8 µM | [20] 20 µM | [6] 20.9 µM | [7] 16 µM | [8] 11.5 µM | [10] 21.4 µM | [11] 13.2 µM | [12] 9.86 µM | [13] 16 µM | [14] 10.7 µM | [15] 11.5 µM | [16] 13 µM | [17] 21.7 µM | [18] 12.9 µM
